Test results reported in patent publication US5157052A, “Method for inhibiting IgE production” (priority 1990, dated 1992).

How the values were obtained:
[1] = system: IgG2a; assay: Serum IgG2a in anti-IgD stimulated mice (two site sandwich ELISA, Assay C); format: in vivo, mouse (Balb/c female); details: for IgG2a ±: Table 12, day 8 (control 849)
Description: (§1) Sera from mice treated with compounds in accordance with the method of the invention are analyzed for levels of IgG1, IgG2a, IgG3, and IgM.
Measurement of mouse IgG2a by a two site sandwich ELISA is performed in substantial accordance with the teaching of Assay B except with the following changes. NuncImmulon II plates are used in this assay. The IgG2a standard is purchased from Southern Biotech. The standard curve is linear between 4-250 ng/ml. Serum containing IgG2a is diluted 1/6400 to 1/1,000,000. About a 1/6,000 dilution of goat anti mouse IgG2a (Southern Biotech) conjugated to alkaline phosphatase is used.
(§2) Sera from the mice described in Example 13 are analyzed for the levels of IgG1, IgG2a, and IgG3 by Assays B, C, and D, respectively.
(§3) Two groups of 4 Balb/c female mice per group are injected with both 100 μg FF1-4D5 antibody and 100 μg H∂A1 antibody. One of these groups is a stimulated control designated Group B. On day 3 and 4, the other group is injected with 40 μg (±) methyl 11α, 16-dihydroxy-1-methyl-9-oxoprosta-4Z,13E-dien-1-oate. Another group is injected with only PBS as an unstimulated control (Group A). On day -1 and 8, 50-100 μl of serum is recovered and analyzed for IgE, IgG1 and IgG2a by Assays A, B, and C, respectively.
(§4) 3 groups of 4 Balb/c female mice per group are injected with both 100 μg FF1-4D5 antibody and 100 μg H∂A1 antibody on day 0. Group A is given no further treatment. On day 3 and 4, one group of mice is injected with 20 μg (±) methyl 2-[2-[3R-3α-hydroxy-2β-(4-hydroxy-4-methyl-1E-octenyl-5-oxo-1α-cyclopentyl]-methyl]cyclopropanebutanoate (Group B) and another group with 20 μg (±) methyl 2-[2-[3R-3α-hydroxy-2β-(4-hydroxy-4-methyl-1E-octenyl)-5-oxo-1α-cyclopentyl]ethyl]cyclopropanepropanoate (Group C) as in Example 13. On day -1 and 8, 50-100 μl of serum is recovered and analyzed for IgE, IgG1, IgG2a and IgG3 by Assays A, B, C and D, respectively. The selectivity of inhibition of IgE is shown in Table 12.
(§5) Three groups of 5 Balb/c female mice per group are injected with both 100 μg FF1-4D5 antibody and 100 μg H∂A1 antibody on day 0. Group A is a control with no further treatment. On day 3 and 4, the mice are injected with 20 μg (±) methyl 11α,16-dihydroxy-4,4,16-trimethyl-9-oxoprosta-13E-en-1-oate (Group B) or 20 μg (±) methyl 11α,16-dihydroxy-16-methyl-9-oxoprosta-3,5Z,13E-trien-1-oate (Group C) as in Example 13. On day -1 and 8, […] of serum is recovered and analyzed for IgE, IgG1, IgG2a, IgG3 and IgM by Assays A, B, C, D and E, respectively.

[2] = system: IgG3; assay: Serum IgG3 in anti-IgD stimulated mice (two site sandwich ELISA, Assay D); format: in vivo, mouse (Balb/c female)
[3] = system: IgE; assay: ED50 for inhibition of IgE calculated from the examples; format: in vivo, mouse; details: dose to achieve 50% inhibition of IgE
Description: From the data in the above examples, the effective dose of each prostaglandin to achieve 50% inhibition of IgE (ED50) was calculated.

[4] = system: IgG1; assay: Serum IgG1 in anti-IgD stimulated mice (two site sandwich ELISA, Assay B); format: in vivo, mouse (Balb/c female)
Description: as §1
Mouse IgG1 measurement by a two site sandwich ELISA is as follows. About 5 μg of rabbit anti mouse IgG (Organon-Teknika-Cappel, Malvern, Pa.) is attached to the wells of a NuncImmulon 96 well plate and IgG1 levels are determined in substantial accordance with Assay A except with the following changes. The IgG1 standard is purchased from Southern BioTech, Birmingham, Ala., and stored at 10 μg/ml in 2% NBS in PBS at 4° C. The standard curve is prepared by diluting the mouse IgG1 standard in 0.05% Tween-80 in PBS, and is linear between 3.9 and 250 ng/ml. Serum containing IgG1 is diluted 1/10,000 to 1/1,000,000 in 0.05% Tween 80-PBS, to place the measurement within the standard curve. Standard IgG1 (or diluted serum) is incubated at about 37° C. for 1 hour and the plates are washed with 0.05% Tween 80-PBS as described in Assay A. About a 1/3,000 dilution of Goat anti mouse IgG1 (Southern Biotech, Birmingham, Ala.) conjugated to alkaline phosphatase in 0.05% Tween 80-PBS is added to each well and incubated at about 37° C. for 60 minutes. The plate is washed and colorimetric substrate, prepared as described by the manufacturer (Alkaline Phosphatase Substrate System, KPL, Gaithersburg, Md.), is added and optical density and data analysis is performed in the same manner as Assay A.
as §2, §3, §4, §5

[5] = Diarrheal effects in rats; details: rat, in vivo, po
[6] = Table 12, 20 μg days 3 and 4, day 8 (control 584)
[7] = Table 12, 20 μg days 3 and 4, day 8 (control 10525)
[8] = 2 μg IP days 3 and 4, day -1 baseline before treatment
[9] = 5 μg IP days 3 and 4, day -1 baseline before treatment
[10] = 10 μg IP days 3 and 4, day -1 baseline before treatment
[11] = 20 μg IP days 3 and 4, day -1 baseline before treatment
[12] = 40 μg IP days 3 and 4, day -1 baseline before treatment

CCCCC(C)(O)C/C=C/[C@H]1[C@H](O)CC(=O)[C@@H]1CCC1CC1CCC(=O)OC (relative stereo) [(±) methyl 2-[2-[3R-3α-hydroxy-2β-(4-hydroxy-4-methyl-1E-octenyl)-5-oxo-1α-cyclopentyl]ethyl]cyclopropanepropanoate]
inhibition of IgG2a ([1]; 20 μg days 3 and 4, Example 23): not IgG1, IgG2a or IgG3 | IgG2a ± ([1]; 20 μg days 3 and 4): 840 ± 484 µg/mL | inhibition of IgG3 ([2]; 20 μg days 3 and 4, Example 23): not IgG1, IgG2a or IgG3 | IgG3 ± SD [2, 6]: 901 ± 213 µg/mL | ED50 IgE Inhibition [3]: 1.0 μg/mouse/TID | inhibition of IgG1 ([4]; 20 μg days 3 and 4, Example 23): not IgG1, IgG2a or IgG3 | IgG1 ± SD [4, 7]: 22573 ± 5690 µg/mL

CCCCC(C)(O)C/C=C/[C@H]1[C@H](O)CC(=O)[C@@H]1CC1CC1CCCC(=O)OC (relative stereo) [(±) methyl 2-[2-[3R-3α-hydroxy-2β-(4-hydroxy-4-methyl-1E-octenyl)-5-oxo-1α-cyclopentyl]methyl]cyclopropanebutanoate]
inhibition of IgG2a ([1]; 20 μg days 3 and 4, Example 23): not IgG1, IgG2a or IgG3 | IgG2a ± ([1]; 20 μg days 3 and 4): 834 ± 235 µg/mL | inhibition of IgG3 ([2]; 20 μg days 3 and 4, Example 23): not IgG1, IgG2a or IgG3 | IgG3 ± SD [2, 6]: 520 ± 39 µg/mL | ED50 IgE Inhibition [3]: 9.0 μg/mouse/TID | inhibition of IgG1 ([4]; 20 μg days 3 and 4, Example 23): not IgG1, IgG2a or IgG3 | IgG1 ± SD [4, 7]: 14470 ± 2997 µg/mL

CCCCC(C)(O)C/C=C/[C@H]1[C@H](O)CC(=O)[C@@H]1C/C=C\C=CCC(=O)OC (relative stereo) [(±) methyl 11α,16-dihydroxy-16-methyl-9-oxoprosta-3,5Z,13-trien-1-oate]
inhibition of IgG2a ([1]; 20 μg days 3 and 4, Example 25): not IgG1, IgG2a, IgG3 and IgM | IgG2a ± SD ([1]; Table 14, 20 μg days 3 and 4, day 8 (control 1246)): 1202 ± 338 µg/mL | inhibition of IgG3 ([2]; 20 μg days 3 and 4, Example 25): not IgG1, IgG2a, IgG3 and IgM | IgG3 ± SD ([2]; Table 14, 20 μg days 3 and 4, day 8 (control 1538)): 1709 ± 429 µg/mL | ED50 IgE Inhibition [3]: 6.5 μg/mouse/TID | inhibition of IgG1 ([4]; 20 μg days 3 and 4, Example 25): not IgG1, IgG2a, IgG3 and IgM | IgG1 ± SD ([4]; Table 14, 20 μg days 3 and 4, day 8 (control 21703)): 18320 ± 4695 µg/mL | TD50 at 8 h [5]: 0.57 mg/kg

CCCCC(C)(O)C/C=C/[C@H]1[C@H](O)CC(=O)[C@@H]1C/C=C\CCCC(=O)OC (mixture of isomers) [(±) methyl 11α,16-dihydroxy-16-methyl-9-oxoprosta-5Z,13E-dien-1-oate]
IgG2a ± SD ([1]; 2 μg IP days 3 and 4, day 7 (control 139)): 114 ± 61 µg/mL | IgG2a ± SD ([1]; 2 μg IP days 3 and 4, day 8 (control 554)): 277 ± 111 µg/mL | IgG2a ± SD ([1]; 2 μg IP days 3 and 4, day 9 (control 923)): 1053 ± 256 µg/mL | IgG2a ± SD ([1]; 2 μg IP days 3 and 4, day 11 (control 951)): 1124 ± 219 µg/mL | IgG2a ± SD [1, 8]: 25 ± 25 µg/mL | IgG2a ± SD ([1]; 5 μg IP days 3 and 4, day 7): 133 ± 67 µg/mL | IgG2a ± SD ([1]; 5 μg IP days 3 and 4, day 8): 481 ± 192 µg/mL | IgG2a ± SD ([1]; 5 μg IP days 3 and 4, day 9): 1093 ± 245 µg/mL | IgG2a ± SD ([1]; 5 μg IP days 3 and 4, day 11): 1540 ± 201 µg/mL | IgG2a ± SD [1, 9]: 58 ± 66 µg/mL | IgG2a ± SD ([1]; 10 μg IP days 3 and 4, day 7): 107 ± 45 µg/mL | IgG2a ± SD ([1]; 10 μg IP days 3 and 4, day 8): 276 ± 168 µg/mL | IgG2a ± SD ([1]; 10 μg IP days 3 and 4, day 9): 855 ± 117 µg/mL | IgG2a ± SD ([1]; 10 μg IP days 3 and 4, day 11): 1097 ± 289 µg/mL | IgG2a ± SD [1, 10]: 26 ± 7 µg/mL | IgG2a ± SD ([1]; 20 μg IP days 3 and 4, day 7): 182 ± 105 µg/mL | IgG2a ± SD ([1]; 20 μg IP days 3 and 4, day 8): 493 ± 187 µg/mL | IgG2a ± SD ([1]; 20 μg IP days 3 and 4, day 9): 1170 ± 285 µg/mL | IgG2a ± SD ([1]; 20 μg IP days 3 and 4, day 11): 2133 ± 862 µg/mL | IgG2a ± SD [1, 11]: 29 ± 9 µg/mL | IgG2a ± SD ([1]; 40 μg IP days 3 and 4, day 7): 81 ± 12 µg/mL | IgG2a ± SD ([1]; 40 μg IP days 3 and 4, day 8): 433 ± 314 µg/mL | IgG2a ± SD ([1]; 40 μg IP days 3 and 4, day 9): 1177 ± 383 µg/mL | IgG2a ± SD ([1]; 40 μg IP days 3 and 4, day 11): 1667 ± 675 µg/mL | IgG2a ± SD [1, 12]: 23 ± 1 µg/mL | IgG3 ± SD ([2]; 2 μg IP days 3 and 4, day 7 (control 227)): 370 ± 229 µg/mL | IgG3 ± SD ([2]; 2 μg IP days 3 and 4, day 8 (control 519)): 882 ± 310 µg/mL | IgG3 ± SD ([2]; 2 μg IP days 3 and 4, day 9 (control 510)): 741 ± 475 µg/mL | IgG3 ± SD ([2]; 2 μg IP days 3 and 4, day 11 (control 465)): 687 ± 152 µg/mL | IgG3 ± SD [2, 8]: 70 ± 10 µg/mL | IgG3 ± SD ([2]; 5 μg IP days 3 and 4, day 7): 464 ± 161 µg/mL | IgG3 ± SD ([2]; 5 μg IP days 3 and 4, day 8): 640 ± 46 µg/mL | IgG3 ± SD ([2]; 5 μg IP days 3 and 4, day 9): 649 ± 232 µg/mL | IgG3 ± SD ([2]; 5 μg IP days 3 and 4, day 11): 559 ± 162 µg/mL | IgG3 ± SD [2, 9]: 109 ± 44 µg/mL | IgG3 ± SD ([2]; 10 μg IP days 3 and 4, day 7): 494 ± 267 µg/mL | IgG3 ± SD ([2]; 10 μg IP days 3 and 4, day 8): 789 ± 264 µg/mL | IgG3 ± SD ([2]; 10 μg IP days 3 and 4, day 9): 760 ± 340 µg/mL | IgG3 ± SD ([2]; 10 μg IP days 3 and 4, day 11): 802 ± 216 µg/mL | IgG3 ± SD [2, 10]: 68 ± 2 µg/mL | IgG3 ± SD ([2]; 20 μg IP days 3 and 4, day 7): 446 ± 266 µg/mL | IgG3 ± SD ([2]; 20 μg IP days 3 and 4, day 8): 1075 ± 453 µg/mL | IgG3 ± SD ([2]; 20 μg IP days 3 and 4, day 9): 1636 ± 275 µg/mL | IgG3 ± SD ([2]; 20 μg IP days 3 and 4, day 11): 1288 ± 156 µg/mL | IgG3 ± SD [2, 11]: 77 ± 10 µg/mL | IgG3 ± SD ([2]; 40 μg IP days 3 and 4, day 7): 236 ± 84 µg/mL | IgG3 ± SD ([2]; 40 μg IP days 3 and 4, day 8): 639 ± 104 µg/mL | IgG3 ± SD ([2]; 40 μg IP days 3 and 4, day 9): 1048 ± 167 µg/mL | IgG3 ± SD ([2]; 40 μg IP days 3 and 4, day 11): 1044 ± 115 µg/mL | IgG3 ± SD [2, 12]: 68 ± 6.5 µg/mL | ED50 IgE Inhibition [3]: 1.0 μg/mouse/TID | IgG1 ± SD ([4]; 40 μg IP days 3 and 4, day 8): 15666 ± 2300 µg/mL | IgG1 ± SD [4, 12]: 175 ± 32 µg/mL | TD50 at 8 h [5]: 0.173 mg/kg
